The record followed here is patent US6358921B1, “Antimicrobial peptide compositions and method” (priority 1996, dated 2002).

In one assay the test system is P. aeruginosa H188. Format: cell-based, Pseudomonas aeruginosa. As to conditions: H188. An excerpt: (§1) The following bacterial strains were utilized: Escherichia coli UB1005 (wt) and its antibiotic supersusceptible derivative DC2 (Clark, 1984); Excherichia coli SC9251 and its polymixin B rasistant mutant pmrA SC9252 (Peterson, et al., 1987) Pseudomonas aeruginosa H187 (wt) (Angus, et al., 1987) and its antibiotic-sensitive derivative H188 (Zimmerman, W, Antimicrob. Agents Chemother. 18: 94-100, 1980); methicillin sensitive Staphylococcus aureus K147 (Kreiswirth, et al., 1983); Staphylococcus aureus SAP0017, a methicillin resistant clinical isolate from Dr. A. Chow (University of British Columia); Bacillus subtilis, an environmental wt lab strain. Enterococcus faecalis are ATCC 29212 cells and Staphylococcus epidermidis was a clinical isolate from Dr. D. Speert (University of British Columbia). Antifungal activity was tested using a clinical lab isolate of Candida albicans. Salmonella typhinurium C57 and C610 (Fields, P.I., et al., Science 243: 1059-1062 (1989) Corynebacterium xerosis was an environmental isolate (University of British Columbia).
(§2) It is now apparent that agar-based assays severely underestimate antifungal activity as well as activity against gram negative microorganisms (Kondejewski, et al., 1996). Consequently, in the studies reported herein, a liquid-broth method was used to measure the antibiotic properties of the peptides. […] Briefly, cells were grown overnight at 37° C. in LB and diluted in the same medium. Serial dilutions of antibiotics were added to the microtitre plates in a volume of 100 μL followed by 10 μL of bacteria to give a final inoculum of 5×10^5 CFU/mL. Plates were incubated at 37° C. overnight and MICs determined as the lowest antibiotic concentration that inhibited growth. […]

The next assay has as its system B. subtilis. Type of assay: cell-based, Bacillus subtilis.
Source text: as §1, §2

Assay [1] is described as follows: Displacement of dansyl-polymyxin from LPS. Conditions: read-out: LPS binding affinity: peptide concentration to displace 50% of dansyl-polymyxin B from LPS; Tables 1, 4, 7. Format: binding, P. aeruginosa. The source says:
In order to determine whether ring size affects the interaction between the peptide and bacterial membranes, we studied the interaction between the GS ring analogs and bacterial lipopolysaccharide (LPS). It has been shown previously that dansyl-polymixin (DPX) is a good probe for cationic binding sites on both purified LPS as well as whole bacterial cells (Example 8; Moore, et al., 1986; Sawyer, et al., 1988; Hancock, 1981). […] The LPS binding activity of various GS analogs was investigated, as discussed above.
Dansyl-polymixin (DPX) displacement from P. aeruginosa LPS was measured as described (Moore, et al., 1986). Briefly, peptides were titrated into cuvettes containing 3 μg of LPS per mL and 2.5 μM dansyl-polymixin (approximately 90% saturation of LPS binding sites) in 1 mL of 5 mM sodium HEPES buffer, pH 7.0, and the decrease in fluorescence recorded. A plot of the inverse of the percent inhibition as a function of the inverse of inhibitor concentration gave a value for I50, the inhibitor concentration resulting in 50% displacement of dansyl-polymixin from LPS (−1/× intercept).

The next assay deals with S. aureus K147. Type of assay: cell-based, Staphylococcus aureus.
Source text: as §1
(§3) It is now apparent that agar-based assays severely underestimate antifungal activity as well as activity against gram negative microorganisms (Kondejewski, et al., 1996). Consequently, in the studies reported herein, a liquid-broth method was used to measure the antibiotic properties of the peptides. […] Briefly, cells were grown overnight at 37° C. in LB and diluted in the same medium. Serial dilutions of antibiotics were added to the microtitre plates in a volume of 100 μL followed by 10 μL of bacteria to give a final inoculum of 5×10^5 CFU/mL. Plates were incubated at 37° C. overnight and MICs determined as the lowest antibiotic concentration that inhibited growth.
(§4) The results from antimicrobial and hemolytic assays are combined to provide a “Therapeutic Index” (TI) for each peptide with respect to individual microorganisms. As reported herein, the TI is calculated as the hemolytic activity divided by the antimicrobial activity. The TI thus is a measure of specificity of the particular peptide for microbial membranes as opposed to human blood cell membranes. In the present studies, antimicrobial activities are reported as minimum inhibitory concentrations (MIC)—the lowest concentration of peptide (μg/ml) found to inhibit growth of the particular microbe. Hemolytic activity is reported as the concentration of peptide that effected complete lysis of blood cells after four hours. Thus, in the context of the present invention high TI values indicate microbial specificity and relative lack of toxicity.

The test system of a further assay is S. aureus SAP0017. Type of assay: cell-based, Staphylococcus aureus.
Source text: as §1, §3, §4

The next assay deals with S. typhinurium C587. Format: cell-based, Salmonella typhinurium.
Source text: as §1, §2

The next assay deals with S. typhinurium C610. Format: cell-based, Salmonella typhinurium.
Source text: as §1, §2

In another assay the test system is C. Albicans. Format: cell-based, Candida albicans.
Source text: as §1, §2

The test system of the next assay is E. coli DC2. Format: cell-based, Escherichia coli. Conditions: DC2.
Source text: as §1, §3, §4

A further assay relates to S. epidermidis. Format: cell-based, Staphylococcus epidermidis.
Source text: as §1, §2

Another assay concerns C. xeroses. Format: cell-based, Corynebacterium xerosis.
Source text: as §1, §2

The next assay has as its system E. faecalis. Format: cell-based, Enterococcus faecalis.
Source text: as §1, §2

The next assay relates to P. aeruginosa H187. Type of assay: cell-based, Pseudomonas aeruginosa. Conditions: H187.
Source text: as §1, §3, §4

A further assay deals with E. coli UB1005. Type of assay: cell-based, Escherichia coli. As to conditions: UB1005.
Source text: as §1, §2

As for `CC(C)C[C@@H]1NC(=O)[C@H](CCCCN)NC(=O)[C@H](C(C)C)NC(=O)[C@@H]2CCCN2C(=O)[C@@H](Cc2ccc(O)cc2)NC(=O)[C@H](CC(C)C)NC(=O)[C@H](CCCCN)NC(=O)[C@H](C(C)C)NC(=O)[C@@H](CCCCN)NC(=O)[C@H](CC(C)C)NC(=O)[C@@H]2CCCN2C(=O)[C@@H](Cc2ccc(O)cc2)NC(=O)[C@H](C(C)C)NC(=O)[C@H](CCCCN)NC1=O` [GS14K9], the “Minimum Inhibitory Concentration (activity)” value was determined as 62 µg/mL in the assay on P. aeruginosa H188; 25 µg/mL in the assay with B. subtilis; 50 µg/mL with S. aureus K147; 25 µg/mL in the assay with S. aureus SAP0017; 17 µg/mL with S. typhinurium C587; 6.2 µg/mL in the assay on S. typhinurium C610. Moreover, the “Minimum Inhibitory Concentration (activity)” value turned out to be 6.2 µg/mL in the assay on C. Albicans; 3.1 µg/mL with E. coli DC2; 6.2 µg/mL in the assay on S. epidermidis; 1.5 µg/mL in the assay on C. xeroses; 1.5 µg/mL with E. faecalis; 50 µg/mL in the assay with P. aeruginosa H187. In addition, the IC50 in assay [1] amounted to 60 µM.
On to `CC(C)C[C@@H]1NC(=O)[C@H](CCCCN)NC(=O)[C@H](C(C)C)NC(=O)[C@H](CCCCN)NC(=O)[C@H](CC(C)C)NC(=O)[C@@H]2CCCN2C(=O)[C@@H](Cc2ccc(O)cc2)NC(=O)[C@H](C(C)C)NC(=O)[C@H](CCCCN)NC(=O)[C@@H](CC(C)C)NC(=O)[C@H](CCCCN)NC(=O)[C@H](C(C)C)NC(=O)[C@@H]2CCCN2C(=O)[C@@H](Cc2ccc(O)cc2)NC1=O` [GS14L3], for which the “Minimum Inhibitory Concentration (activity)” value with P. aeruginosa H188 is 200 µg/mL; in the assay with B. subtilis, greater than 200 µg/mL; in the assay on S. aureus K147, greater than 200 µg/mL; with S. aureus SAP0017 it was 200 µg/mL; with S. typhinurium C587, greater than 200 µg/mL; with S. typhinurium C610, greater than 200 µg/mL. Also, the “Minimum Inhibitory Concentration (activity)” value was 100 µg/mL in the assay with C. Albicans; 50 µg/mL in the assay on E. coli DC2; 50 µg/mL in the assay with S. epidermidis; 0.8 µg/mL in the assay with C. xeroses; 200 µg/mL with E. coli UB1005; 0.8 µg/mL in the assay on E. faecalis. Besides, in the assay on P. aeruginosa H187, the “Minimum Inhibitory Concentration (activity)” value was greater than 200 µg/mL. Moreover, the IC50 in [1] is 35 µM.
In the case of `CC(C)C[C@@H]1NC(=O)[C@H](CCCCN)NC(=O)[C@H](C(C)C)NC(=O)[C@@H]2CCCN2C(=O)[C@@H](Cc2ccc(O)cc2)NC(=O)[C@H](CC(C)C)NC(=O)[C@H](CCCCN)NC(=O)[C@H](C(C)C)NC(=O)[C@H](CCCCN)NC(=O)[C@H](CC(C)C)NC(=O)[C@H]2CCCN2C(=O)[C@@H](Cc2ccc(O)cc2)NC(=O)[C@H](C(C)C)NC(=O)[C@H](CCCCN)NC1=O` [GS14P7], the “Minimum Inhibitory Concentration (activity)” value in the assay with P. aeruginosa H188 is 100 µg/mL; in the assay on B. subtilis, greater than 200 µg/mL; in the assay on S. aureus K147, greater than 200 µg/mL; in the assay with S. aureus SAP0017, greater than 200 µg/mL; in the assay with S. typhinurium C587, greater than 200 µg/mL; in the assay on S. typhinurium C610, 200 µg/mL. In addition, the “Minimum Inhibitory Concentration (activity)” value in the assay on C. Albicans was found to be 25 µg/mL; in the assay with E. coli DC2, 6.2 µg/mL; with S. epidermidis, 6.2 µg/mL; in the assay with C. xeroses, 1 µg/mL; in the assay on E. coli UB1005 it was 200 µg/mL; in the assay on E. faecalis, 6.2 µg/mL. Also, in the assay on P. aeruginosa H187, the “Minimum Inhibitory Concentration (activity)” value came to 200 µg/mL. For the same compound, the IC50 in assay [1] was 18 µM.
For the compound `CC(C)C[C@@H]1NC(=O)[C@H](CCCCN)NC(=O)[C@H](C(C)C)NC(=O)[C@H]2CCCN2C(=O)[C@@H](Cc2ccc(O)cc2)NC(=O)[C@H](CC(C)C)NC(=O)[C@H](CCCCN)NC(=O)[C@H](C(C)C)NC(=O)[C@H](CCCCN)NC(=O)[C@H](CC(C)C)NC(=O)[C@@H]2CCCN2C(=O)[C@@H](Cc2ccc(O)cc2)NC(=O)[C@H](C(C)C)NC(=O)[C@H](CCCCN)NC1=O` [GS14P14], the “Minimum Inhibitory Concentration (activity)” value in the assay with P. aeruginosa H188 was 100 µg/mL; in the assay with B. subtilis, greater than 200 µg/mL; in the assay with S. aureus K147, greater than 200 µg/mL; in the assay with S. aureus SAP0017, greater than 200 µg/mL; with S. typhinurium C587, greater than 200 µg/mL; in the assay on S. typhinurium C610 it was greater than 200 µg/mL. Besides, the “Minimum Inhibitory Concentration (activity)” value in the assay with C. Albicans is 25 µg/mL; in the assay with E. coli DC2 it was 4 µg/mL; in the assay on S. epidermidis, 6.2 µg/mL; with C. xeroses, 1 µg/mL; with E. coli UB1005 it was 100 µg/mL; with E. faecalis, 6.2 µg/mL. In the assay on P. aeruginosa H187, the “Minimum Inhibitory Concentration (activity)” value was greater than 200 µg/mL. Also, the IC50 in assay [1] stood at 20 µM.
As for `CC(C)C[C@@H]1NC(=O)[C@H](CCCCN)NC(=O)[C@@H](C(C)C)NC(=O)[C@@H]2CCCN2C(=O)[C@@H](Cc2ccc(O)cc2)NC(=O)[C@H](CC(C)C)NC(=O)[C@H](CCCCN)NC(=O)[C@H](C(C)C)NC(=O)[C@H](CCCCN)NC(=O)[C@H](CC(C)C)NC(=O)[C@@H]2CCCN2C(=O)[C@@H](Cc2ccc(O)cc2)NC(=O)[C@H](C(C)C)NC(=O)[C@H](CCCCN)NC1=O` [GS14V1], the “Minimum Inhibitory Concentration (activity)” value in the assay on P. aeruginosa H188 was found to be 3.1 µg/mL; in the assay with B. subtilis, 50 µg/mL; in the assay with S. aureus K147, 100 µg/mL; in the assay with S. aureus SAP0017, 50 µg/mL; in the assay with S. typhinurium C587, 50 µg/mL; with S. typhinurium C610, 6.2 µg/mL. The “Minimum Inhibitory Concentration (activity)” value with C. Albicans was found to be 5 µg/mL; in the assay on E. coli DC2, 3.1 µg/mL; in the assay on S. epidermidis it was 3.1 µg/mL; with C. xeroses, 1.5 µg/mL; in the assay on E. coli UB1005 it was 6.2 µg/mL; with E. faecalis, 1.5 µg/mL. In the assay with P. aeruginosa H187, the “Minimum Inhibitory Concentration (activity)” value stood at 60 µg/mL. For the same compound, the IC50 in [1] was determined as 41 µM.
